Here are results for 11 molecules from PubChem BioAssay (NCI).

Among the test systems are OVCAR-5 ovarian; HT29 colon; 786-0 renal; ACHN renal; IGROV1 ovarian; OVCAR-8 ovarian; T-47D breast; TK-10 renal; SF-295 CNS; A549 NSCLC.
What all share (assay): inhibition of tumour cell growth, NCI panel, 48 h

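Step 1: Grow cells in 96-well plates. Step 2: Expose to compound for 48 hours at 5 concentrations. Step 3: Interpolate endpoints linearly; if unreached, use highest concentration. TGI: concentration producing complete growth inhibition.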

As for `C=CCOC1=C(OC(C)=O)C(C2COC(C)(C)O2)OC1=O` (centres undefined), the TGI in the assay with OVCAR-5 ovarian is 32.4 µM; in the assay with HT29 colon, 38.4 µM; with 786-0 renal it was 37.4 µM; in the assay on ACHN renal, 32.5 µM; in the assay on IGROV1 ovarian, more than 100 µM; in the assay with OVCAR-8 ovarian, more than 100 µM. In addition, the TGI in the assay on T-47D breast was 39.7 µM; with TK-10 renal, 68.7 µM; in the assay with SF-295 CNS it was more than 100 µM; in the assay on A549 NSCLC, 69.4 µM.

Consider `Oc1ccccc1/C=N/N1C(=S)N(c2ccccc2)C(=Nc2ccccc2)C1=Nc1ccccc1`, for which the TGI in the assay on OVCAR-5 ovarian is more than 52.4 µM; in the assay on HT29 colon, 12.7 µM; with 786-0 renal, 14.1 µM; with ACHN renal, 17.5 µM; with IGROV1 ovarian, 30.8 µM; with OVCAR-8 ovarian, 18.2 µM. For the same molecule, the TGI was 75.6 µM in the assay with T-47D breast, 20.8 µM in the assay on TK-10 renal, 23.2 µM in the assay with SF-295 CNS and 37.7 µM in the assay with A549 NSCLC.

With `O=c1oc2ccc([N+](=O)[O-])cc2cc1-c1csc(-c2ccccc2)n1`, the TGI with OVCAR-5 ovarian, in the assay with HT29 colon, in the assay with 786-0 renal, in the assay on ACHN renal, with IGROV1 ovarian and in the assay on OVCAR-8 ovarian was more than 100 µM in each case. Besides, the TGI in the assay with T-47D breast, in the assay on TK-10 renal, in the assay with SF-295 CNS and with A549 NSCLC was more than 100 µM in each case.

Regarding `O=[N+]([O-])C(=C(\Cl)NCCO)/C(Cl)=C(/Cl)Br`, the TGI is 13.4 µM with OVCAR-5 ovarian; 3.67 µM in the assay on HT29 colon; 2.75 µM in the assay on 786-0 renal; 8.9 µM with ACHN renal; 10.6 µM in the assay with IGROV1 ovarian; 7.31 µM in the assay with OVCAR-8 ovarian. Moreover, the TGI in the assay on T-47D breast was determined as 3.84 µM; in the assay with TK-10 renal, 4.91 µM; in the assay with SF-295 CNS, 24.9 µM; in the assay with A549 NSCLC, 21.1 µM.

On to `O=C(Nc1ccccn1)c1cc2c(cc1Cl)Sc1nccn1S2(=O)=O`, for which the TGI was more than 100 µM with OVCAR-5 ovarian; more than 100 µM in the assay with HT29 colon; more than 100 µM with 786-0 renal; more than 100 µM with ACHN renal; 76.4 µM in the assay on IGROV1 ovarian; more than 100 µM in the assay with OVCAR-8 ovarian. Besides, the TGI is 73.6 µM with T-47D breast, more than 100 µM in the assay on TK-10 renal, more than 100 µM in the assay with SF-295 CNS and more than 100 µM in the assay with A549 NSCLC.

With `COC(=O)CC(c1ccccc1)C(C#N)(OP1(=O)OC(c2ccccc2)C(C)N1C)c1ccccc1` (centres undefined), the TGI in the assay with OVCAR-5 ovarian, with HT29 colon, with 786-0 renal, with ACHN renal, in the assay with IGROV1 ovarian and with OVCAR-8 ovarian was more than 100 µM each time. Moreover, the TGI in the assay on T-47D breast, in the assay on TK-10 renal, in the assay with SF-295 CNS and with A549 NSCLC was more than 100 µM in each case.

For the molecule `CC1=NN(c2cccc(S(=O)(=O)O)c2)C2(C1)SCC(=O)N2c1nc2ccccc2s1` (centres undefined), the TGI in the assay with OVCAR-5 ovarian, in the assay on HT29 colon, in the assay with 786-0 renal, in the assay with ACHN renal, with IGROV1 ovarian and in the assay on OVCAR-8 ovarian was more than 100 µM in each case. For the same molecule, the TGI in the assay with T-47D breast, in the assay with TK-10 renal, with SF-295 CNS and with A549 NSCLC was more than 100 µM each time.

Regarding `COC(=O)/C=C/[C@H]1[C@H](C)N1S(=O)(=O)c1ccc(C)cc1` (some centres undefined), the TGI with OVCAR-5 ovarian, with HT29 colon, in the assay on 786-0 renal, in the assay with ACHN renal, with IGROV1 ovarian and in the assay with OVCAR-8 ovarian was more than 100 µM throughout. Further, the TGI in the assay on T-47D breast, with TK-10 renal, in the assay on SF-295 CNS and in the assay on A549 NSCLC was more than 100 µM in each case.

Regarding `COC1=C2C[C@](OC)(C#CC=CC#CC2O)CC1(C)C` (some centres undefined), the TGI is more than 100 µM in the assay on OVCAR-5 ovarian; more than 100 µM in the assay on HT29 colon; more than 100 µM with 786-0 renal; more than 100 µM in the assay with ACHN renal; 63.2 µM in the assay on IGROV1 ovarian; more than 100 µM in the assay on OVCAR-8 ovarian. Further, the TGI in the assay on T-47D breast, in the assay with TK-10 renal, in the assay with SF-295 CNS and in the assay on A549 NSCLC was more than 100 µM throughout.

As for `O=C1C=C(NCCc2ccc(O)cc2)C(=O)C=C1NCCc1ccc(O)cc1`, the TGI in the assay with OVCAR-5 ovarian, in the assay with HT29 colon, with 786-0 renal, with ACHN renal, with IGROV1 ovarian and in the assay on OVCAR-8 ovarian was more than 100 µM throughout. For the same molecule, the TGI with T-47D breast, in the assay with TK-10 renal, in the assay on SF-295 CNS and in the assay on A549 NSCLC was more than 100 µM throughout.

On to `COc1ccc(OC)c2c1-c1nnnn1CCC2(C)C`, for which the TGI in the assay with OVCAR-5 ovarian, with HT29 colon, with 786-0 renal, in the assay with ACHN renal, in the assay on IGROV1 ovarian and in the assay with OVCAR-8 ovarian was more than 100 µM each time. Further, the TGI in the assay on T-47D breast, with TK-10 renal and in the assay with SF-295 CNS was more than 100 µM throughout.
